Experimental findings from patent US10336792B2, “Antimicrobial peptide dendrimers” (priority 2014, dated 2019) are described below.

Assay type in all cases: cell-based
Test [1] concerns Escherichia coli (strain DH5α). As to conditions: DH5α. A digest of the protocol: (§1)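 Broth microdilution MIC in LB; overnight cultures diluted to OD600 0.001 and mixed 1:1 with ⅔-serially diluted samples (stock 1 mg mL^−1 in H2O), 37° C for 18-24 h. MTT (0.1%) added; MIC read by eye as lowest concentration inhibiting visible growth (yellow).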
Test [2] has as its system Bacillus subtilis (strain BR151). To be noted: strain BR151. In short, it runs like this:
as §1

Test [3] has as its system Pseudomonas aeruginosa (strain PA01). In words: microbe, parasite or virus in culture. To be noted: strain. In short, it runs like this:
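Broth microdilution MIC against P. aeruginosa PAO1 in LB: peptides serially diluted by ⅔, bacteria added at OD600 0.001 and incubated 18–24 h at 37 °C. MTT added; MIC is the lowest concentration preventing visible growth.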

Molecules are shown by their SMILES. ≈ marks a conversion by molar mass, not a printed value. Positions of bridges follow the written chain, without caps; N, C: chain ends. Non-standard residues stand in square brackets, D forms with d. Residues, ends and D or L forms follow the SMILES beside them. Groups on a side chain read outwards from the residue. Chains are numbered I, II in the order given. dDap = NC[C@@H](N)C(=O)O

For the molecule `CC(C)C[C@@H](NC(=O)[C@@H](CCCNC(=N)N)NC(=O)[C@@H](CNC(=O)[C@@H](CC(C)C)NC(=O)[C@@H](CCCNC(=N)N)NC(=O)[C@@H](CNC(=O)[C@@H](CC(C)C)NC(=O)[C@@H](CCCNC(=N)N)NC(=O)[C@@H](CNC(=O)[C@@H](CC(C)C)NC(=O)[C@H](N)CCCNC(=N)N)NC(=O)[C@@H](CC(C)C)NC(=O)[C@H](N)CCCNC(=N)N)NC(=O)[C@@H](CC(C)C)NC(=O)[C@@H](CCCNC(=N)N)NC(=O)[C@@H](CNC(=O)[C@@H](CC(C)C)NC(=O)[C@H](N)CCCNC(=N)N)NC(=O)[C@@H](CC(C)C)NC(=O)[C@H](N)CCCNC(=N)N)NC(=O)[C@@H](CC(C)C)NC(=O)[C@@H](CCCNC(=N)N)NC(=O)[C@@H](CNC(=O)[C@@H](CC(C)C)NC(=O)[C@@H](CCCNC(=N)N)NC(=O)[C@@H](CNC(=O)[C@@H](CC(C)C)NC(=O)[C@H](N)CCCNC(=N)N)NC(=O)[C@@H](CC(C)C)NC(=O)[C@H](N)CCCNC(=N)N)NC(=O)[C@@H](CC(C)C)NC(=O)[C@@H](CCCNC(=N)N)NC(=O)[C@@H](CNC(=O)[C@@H](CC(C)C)NC(=O)[C@H](N)CCCNC(=N)N)NC(=O)[C@@H](CC(C)C)NC(=O)[C@H](N)CCCNC(=N)N)C(N)=O` [MSt-156, (rl)8(brl)4(brl)2(brl)] (I: H-[dR][dL][dDap]([dL-dR])[dR][dL][dDap][dR][dL][dDap][dR][dL]-NH2 / II: H-[dR][dL][dDap]([dL-dR])[dR][dL][dDap][dR][dL] / III: H-[dR][dL][dDap]([dL-dR])[dR][dL] / IV: H-[dR][dL][dDap]([dL-dR])[dR][dL]; amide I:6-IV:C, I:9-II:C, II:6-III:C), the “MIC E. coli DH5α” value in test [1] is 4 µg/mL (≈ 0.858 µM). Besides, the “MIC B. subtilis BR151” value in test [2] was 7 µg/mL (≈ 1.5 µM). For the same molecule, the “MIC P. aeruginosa PAO1” value in test [3] came to 10 µg/mL (≈ 2.15 µM).
With `NCCCC[C@H](NC(=O)[C@H](CCCCNC(=O)[C@H](Cc1c[nH]c2ccccc12)NC(=O)[C@H](CCCCN)NC(=O)[C@H](CCCCNC(=O)[C@H](Cc1c[nH]c2ccccc12)NC(=O)[C@H](CCCCN)NC(=O)[C@H](CCCCNC(=O)[C@H](Cc1c[nH]c2ccccc12)NC(=O)[C@@H](N)CCCCN)NC(=O)[C@H](Cc1c[nH]c2ccccc12)NC(=O)[C@@H](N)CCCCN)NC(=O)[C@H](Cc1c[nH]c2ccccc12)NC(=O)[C@H](CCCCN)NC(=O)[C@H](CCCCNC(=O)[C@H](Cc1c[nH]c2ccccc12)NC(=O)[C@@H](N)CCCCN)NC(=O)[C@H](Cc1c[nH]c2ccccc12)NC(=O)[C@@H](N)CCCCN)NC(=O)[C@H](Cc1c[nH]c2ccccc12)NC(=O)[C@H](CCCCN)NC(=O)[C@H](CCCCNC(=O)[C@H](Cc1c[nH]c2ccccc12)NC(=O)[C@H](CCCCN)NC(=O)[C@H](CCCCNC(=O)[C@H](Cc1c[nH]c2ccccc12)NC(=O)[C@@H](N)CCCCN)NC(=O)[C@H](Cc1c[nH]c2ccccc12)NC(=O)[C@@H](N)CCCCN)NC(=O)[C@H](Cc1c[nH]c2ccccc12)NC(=O)[C@H](CCCCN)NC(=O)[C@H](CCCCNC(=O)[C@H](Cc1c[nH]c2ccccc12)NC(=O)[C@@H](N)CCCCN)NC(=O)[C@H](Cc1c[nH]c2ccccc12)NC(=O)[C@@H](N)CCCCN)C(=O)N[C@@H](Cc1c[nH]c2ccccc12)C(N)=O` [MSt-172, (KW)8(KKW)4(KKW)2(KKW)] (I: H-KWK([Trp-Lys])KWKKWKKW-NH2 / II: H-KWK([Trp-Lys])KWKKW / III: H-KWK([Trp-Lys])KW / IV: H-KWK([Trp-Lys])KW; amide I:6-IV:C, I:9-II:C, II:6-III:C; N-terminus assumed), in test [1], the “MIC E. coli DH5α” value turned out to be 7 µg/mL (≈ 1.24 µM). Also, in test [2], the “MIC B. subtilis BR151” value is 6 µg/mL (≈ 1.07 µM). The “MIC P. aeruginosa PAO1” value in test [3] was determined as 12 µg/mL (≈ 2.13 µM).
`NCCCC[C@H](NC(=O)[C@H](CCCCNC(=O)[C@H](Cc1ccccc1)NC(=O)[C@H](CCCCN)NC(=O)[C@H](CCCCNC(=O)[C@H](Cc1ccccc1)NC(=O)[C@H](CCCCN)NC(=O)[C@H](CCCCNC(=O)[C@H](Cc1ccccc1)NC(=O)[C@@H](N)CCCCN)NC(=O)[C@H](Cc1ccccc1)NC(=O)[C@@H](N)CCCCN)NC(=O)[C@H](Cc1ccccc1)NC(=O)[C@H](CCCCN)NC(=O)[C@H](CCCCNC(=O)[C@H](Cc1ccccc1)NC(=O)[C@@H](N)CCCCN)NC(=O)[C@H](Cc1ccccc1)NC(=O)[C@@H](N)CCCCN)NC(=O)[C@H](Cc1ccccc1)NC(=O)[C@H](CCCCN)NC(=O)[C@H](CCCCNC(=O)[C@H](Cc1ccccc1)NC(=O)[C@H](CCCCN)NC(=O)[C@H](CCCCNC(=O)[C@H](Cc1ccccc1)NC(=O)[C@@H](N)CCCCN)NC(=O)[C@H](Cc1ccccc1)NC(=O)[C@@H](N)CCCCN)NC(=O)[C@H](Cc1ccccc1)NC(=O)[C@H](CCCCN)NC(=O)[C@H](CCCCNC(=O)[C@H](Cc1ccccc1)NC(=O)[C@@H](N)CCCCN)NC(=O)[C@H](Cc1ccccc1)NC(=O)[C@@H](N)CCCCN)C(=O)N[C@@H](Cc1ccccc1)C(N)=O` [MSt-174, (KF)8(KKF)4(KKF)2(KKF)] (I: H-KFK([Phe-Lys])KFKKFKKF-NH2 / II: H-KFK([Phe-Lys])KFKKF / III: H-KFK([Phe-Lys])KF / IV: H-KFK([Phe-Lys])KF; amide I:6-IV:C, I:9-II:C, II:6-III:C): the “MIC E. coli DH5α” value in test [1] was determined as 7 µg/mL (≈ 1.39 µM). Further, the “MIC B. subtilis BR151” value in test [2] is 2 µg/mL (≈ 0.396 µM). Also, in test [3], the “MIC P. aeruginosa PAO1” value turned out to be 6 µg/mL (≈ 1.19 µM).
For `CC(C)C[C@H](NC(=O)[C@H](CC(C)C)NC(=O)[C@H](CCCCNC(=O)[C@H](CCCCN)NC(=O)[C@H](CCCCN)NC(=O)[C@H](CCCCNC(=O)[C@H](CC(C)C)NC(=O)[C@@H](N)CC(C)C)NC(=O)[C@H](CC(C)C)NC(=O)[C@@H](N)CC(C)C)NC(=O)[C@H](CCCCN)NC(=O)[C@H](CCCCN)NC(=O)[C@H](CCCCNC(=O)[C@H](CC(C)C)NC(=O)[C@@H](N)CC(C)C)NC(=O)[C@H](CC(C)C)NC(=O)[C@@H](N)CC(C)C)C(=O)NCCCC[C@H](NC(=O)[C@H](CC(C)C)NC(=O)[C@H](CC(C)C)NC(=O)[C@H](CCCCNC(=O)[C@H](CCCCN)NC(=O)[C@H](CCCCN)NC(=O)[C@H](CCCCNC(=O)[C@H](CC(C)C)NC(=O)[C@@H](N)CC(C)C)NC(=O)[C@H](CC(C)C)NC(=O)[C@@H](N)CC(C)C)NC(=O)[C@H](CCCCN)NC(=O)[C@H](CCCCN)NC(=O)[C@H](CCCCNC(=O)[C@H](CC(C)C)NC(=O)[C@@H](N)CC(C)C)NC(=O)[C@H](CC(C)C)NC(=O)[C@@H](N)CC(C)C)C(=O)N[C@@H](CCCCN)C(=O)N[C@@H](CCCCN)C(N)=O` [MSt-180, (LL)8(KKK)4(KLL)2(KKK)] (I: H-LLK([Leu-Leu])KKKLLKKK-NH2 / II: H-LLK([Leu-Leu])KKKLL / III: H-LLK([Leu-Leu])KK / IV: H-LLK([Leu-Leu])KK; amide I:6-IV:C, I:9-II:C, II:6-III:C) the same measures were greater than 62 µg/mL, 3 µg/mL (≈ 0.673 µM) and 12 µg/mL (≈ 2.69 µM).
